Patent US12209081B2 (Katholieke Universiteit Leuven, priority 2020, dated 2025)

Each compound was assayed against mouse TRPM3α2 (mTRPM3) ion channel (Mus musculus (Mouse), UniProt J9SQF3) (assay: TRPM3 ion channel driven Ca2+ uptake, Fluo-4 AM assay, mTRPM3alpha2 overexpressing flip-in HEK293 cells stimulated with pregnenolone sulfate). Conditions: PS 50 μM, cpds 200-299.
Type: cell-based
Summary of the method: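 Flip-in HEK293 cells loaded with Fluo-4 AM were added to plates holding compound plus 50 μM pregnenolone sulfate in Ca2+-containing Krebs buffer. Fluorescence (ex 485/em 535 nm) read directly after cell addition; % inhibition relative to PS-stimulated vehicle and positive-control inhibitor.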

mouse TRPM3α2 (mTRPM3) ion channel, sequence (J9SQF3 other isoform, or with tags, fused parts or gaps): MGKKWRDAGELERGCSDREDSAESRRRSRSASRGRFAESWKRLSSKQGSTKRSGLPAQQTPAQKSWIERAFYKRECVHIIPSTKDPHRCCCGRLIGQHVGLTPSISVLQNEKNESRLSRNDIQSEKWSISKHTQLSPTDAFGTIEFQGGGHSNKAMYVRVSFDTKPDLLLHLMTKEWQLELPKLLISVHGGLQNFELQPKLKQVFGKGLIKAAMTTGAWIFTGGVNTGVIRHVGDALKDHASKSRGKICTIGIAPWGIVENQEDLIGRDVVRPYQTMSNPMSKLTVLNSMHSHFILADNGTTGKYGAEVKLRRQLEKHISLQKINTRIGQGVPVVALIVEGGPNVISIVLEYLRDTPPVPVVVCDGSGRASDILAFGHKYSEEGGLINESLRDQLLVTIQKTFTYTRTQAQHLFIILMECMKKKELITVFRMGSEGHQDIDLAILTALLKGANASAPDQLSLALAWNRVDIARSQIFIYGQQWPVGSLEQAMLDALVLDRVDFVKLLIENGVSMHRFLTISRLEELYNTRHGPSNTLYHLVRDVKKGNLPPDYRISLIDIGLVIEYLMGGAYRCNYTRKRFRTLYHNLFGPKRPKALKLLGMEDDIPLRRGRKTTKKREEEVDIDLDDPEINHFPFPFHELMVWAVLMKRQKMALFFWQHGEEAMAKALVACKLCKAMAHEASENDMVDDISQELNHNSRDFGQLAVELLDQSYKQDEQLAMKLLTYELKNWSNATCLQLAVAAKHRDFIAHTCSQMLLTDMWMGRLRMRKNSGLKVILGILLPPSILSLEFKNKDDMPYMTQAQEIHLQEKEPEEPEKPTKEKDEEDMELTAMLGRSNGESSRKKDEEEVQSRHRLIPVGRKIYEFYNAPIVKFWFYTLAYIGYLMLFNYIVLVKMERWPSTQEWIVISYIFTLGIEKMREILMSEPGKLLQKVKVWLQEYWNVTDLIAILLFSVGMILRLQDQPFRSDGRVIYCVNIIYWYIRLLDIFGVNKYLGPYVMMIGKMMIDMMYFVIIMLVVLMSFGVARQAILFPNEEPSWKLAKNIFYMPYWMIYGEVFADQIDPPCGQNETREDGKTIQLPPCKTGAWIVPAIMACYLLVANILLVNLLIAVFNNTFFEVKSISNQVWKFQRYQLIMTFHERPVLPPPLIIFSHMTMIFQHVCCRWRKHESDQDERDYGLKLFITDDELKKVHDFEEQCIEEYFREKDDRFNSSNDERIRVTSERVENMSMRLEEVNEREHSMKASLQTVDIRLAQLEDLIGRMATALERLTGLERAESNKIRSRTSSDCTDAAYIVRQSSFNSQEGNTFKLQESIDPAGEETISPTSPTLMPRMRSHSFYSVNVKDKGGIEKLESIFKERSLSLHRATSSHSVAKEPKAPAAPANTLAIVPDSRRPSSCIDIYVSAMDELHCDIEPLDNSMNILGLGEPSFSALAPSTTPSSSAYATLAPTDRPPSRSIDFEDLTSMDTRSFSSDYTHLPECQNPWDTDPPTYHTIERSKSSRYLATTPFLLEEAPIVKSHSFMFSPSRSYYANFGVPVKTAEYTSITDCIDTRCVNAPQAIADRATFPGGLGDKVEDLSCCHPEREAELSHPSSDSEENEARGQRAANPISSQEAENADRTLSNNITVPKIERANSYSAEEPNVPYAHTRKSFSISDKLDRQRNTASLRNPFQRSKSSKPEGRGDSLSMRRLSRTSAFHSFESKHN

**Q.** With `Cc1oc2ccc(OCc3cccnc3N(C)C)cc2c1C(=O)N[C@@H](CO)C(N)=O` [compound 297, (S)-N-(1-amino-3-hydroxy-1-oxopropan-2-yl)-5-((2-(dimethylamino)pyridin-3-yl)methoxy)-2-methylbenzofuran-3-carboxamide] as the compound, how does the IC50 read?
**A.** Its IC50 is less than 1 µM.

**Q.** `Cc1oc2ccc(OCc3cccnc3OC(F)F)cc2c1C(=O)N[C@@H](CO)C(N)=O` [compound 296, (S)-N-(1-amino-3-hydroxy-1-oxopropan-2-yl)-5-((2-(difluoromethoxy)pyridin-3-yl)methoxy)-2-methylbenzofuran-3-carboxamide] was tested. Which IC50 did it give?
**A.** The IC50 was less than 1 µM.

**Q.** For `Cc1oc2ccc(OCc3cccnc3C(F)(F)F)cc2c1C(=O)N[C@@H](CO)C(N)=O` [compound 280, (S)-N-(1-amino-3-hydroxy-1-oxopropan-2-yl)-2-methyl-5-((2-(trifluoromethyl)pyridin-3-yl)methoxy)benzofuran-3-carboxamide], which IC50 is on record?
**A.** The IC50 was less than 1 µM.

Same assay, conditions: PS 50 μM, cpds 300-399

**Q.** `Cc1ncsc1COc1ccc2oc(C)c(C(=O)NCCNS(C)(=O)=O)c2c1` [compound 322, 2-methyl-N-(2-(methylsulfonamido)ethyl)-5-((4-methylthiazol-5-yl)methoxy)benzofuran-3-carboxamide] was tested. Which IC50 did it give?
**A.** The IC50 was less than 1 µM.

**Q.** Which IC50 does the source give for `CNC(=O)C1(NC(=O)c2c(C)oc3ccc(OCc4scnc4C)cc23)CCC1` [compound 319, 2-methyl-N-(1-(methylcarbamoyl)cyclobutyl)-5-((4-methylthiazol-5-yl)methoxy)benzofuran-3-carboxamide] here?
**A.** Its IC50 is less than 1 µM.

**Q.** For `Cc1oc2ccc(OCc3c(F)cnn3C)cc2c1C(=O)N[C@H](C(N)=O)[C@@H](C)O` [compound 383, N-((2S,3R)-1-amino-3-hydroxy-1-oxobutan-2-yl)-5-((4-fluoro-1-methyl-1H-pyrazol-5-yl)methoxy)-2-methylbenzofuran-3-carboxamide], which IC50 is on record?
**A.** The IC50 was less than 1 µM.

**Q.** For `Cc1oc2ccc(OCc3ccnn3CC(F)F)cc2c1C(=O)NC1(CO)CCOCC1` [compound 334, 5-((1-(2,2-difluoroethyl)-1H-pyrazol-5-yl)methoxy)-N-(4-(hydroxymethyl)tetrahydro-2H-pyran-4-yl)-2-methylbenzofuran-3-carboxamide], which IC50 is on record?
**A.** The IC50 was less than 1 µM.

Same assay, conditions: PS (50 μM) stimulated, cpd 001-199

**Q.** Which IC50 does the source give for `Cc1oc2ccc(OCC3CCN(C(=O)OC(C)(C)C)C3)cc2c1C(=O)O` (stereo not drawn) [compound 019, 5-((1-(tert-butoxycarbonyl)pyrrolidin-3-yl)methoxy)-2-methylbenzofuran-3-carboxylic acid] here?
**A.** The IC50 was greater than 20 µM.

**Q.** With `Cc1oc2ccc(OCc3cccnc3C(F)(F)F)cc2c1C(=O)NC1CC2(CNC2)C1` [compound 173, 2-methyl-N-(2-azaspiro[3,3]heptan-6-yl)-5-((2-(trifluoromethyl)pyridin-3-yl)methoxy)benzofuran-3-carboxamide] as the compound, how does the IC50 read?
**A.** The IC50 was less than 1 µM.

**Q.** For `Cc1ncsc1COc1ccc2oc(C)c(C(=O)Nc3cc[nH]n3)c2c1` [compound 144, 2-methyl-5-((4-methylthiazol-5-yl)methoxy)-N-(1H-pyrazol-3-yl)benzofuran-3-carboxamide], which IC50 is on record?
**A.** Its IC50 is less than 1 µM.

**Q.** For `Cc1oc2ccc(OCc3cccnc3C(F)(F)F)cc2c1C(=O)NC1(CN)CCC1` [compound 136, N-(1-(aminomethyl)cyclobutyl)-2-methyl-5-((2-(trifluoromethyl)pyridin-3-yl)methoxy)benzofuran-3-carboxamide], which IC50 is on record?
**A.** The IC50 was less than 1 µM.

**Q.** Which IC50 does the source give for `Cc1ncsc1COc1ccc2oc(C)c(C(=O)Nc3ccnn3C)c2c1` [compound 171, 2-methyl-N-(1-methyl-1H-pyrazol-5-yl)-5-((4-methylthiazol-5-yl)methoxy)benzofuran-3-carboxamide] here?
**A.** Its IC50 is less than 1 µM.

**Q.** `Cc1oc2ccc(OCc3ccccn3)cc2c1C(=O)NC1(CO)CCOCC1` [compound 047, N-(4-(hydroxymethyl)tetrahydro-2H-pyran-4-yl)-2-methyl-5-(pyridin-2-ylmethoxy)benzofuran-3-carboxamide] was tested. Which IC50 did it give?
**A.** The IC50 was less than 1 µM.

Same assay, conditions: PS (50 μM) stimulated, cpds. 400-499

**Q.** With `Cc1oc2ccc(OCc3cccnc3O)cc2c1C(=O)NC1(CO)CCC1` [compound 416, N-(1-(hydroxymethyl)cyclobutyl)-5-((2-hydroxypyridin-3-yl)methoxy)-2-methylbenzofuran-3-carboxamide] as the compound, how does the IC50 read?
**A.** The IC50 was less than 1 µM.

**Q.** How did the IC50 turn out when `Cc1oc2ccc(OCc3ccnn3C)cc2c1C(=O)NC(C)(CO)CO` [compound 423, N-(1,3-dihydroxy-2-methylpropan-2-yl)-2-methyl-5-((1-methyl-1H-pyrazol-5-yl)methoxy)benzofuran-3-carboxamide] was run?
**A.** Its IC50 is less than 1 µM.

**Q.** `Cc1ncsc1COc1ccc2oc(C)c(C(=O)NC3(C(N)=O)CC3)c2c1` [compound 477, N-(1-carbamoylcyclopropyl)-2-methyl-5-((4-methylthiazol-5-yl)methoxy)benzofuran-3-carboxamide] was tested. Which IC50 did it give?
**A.** Its IC50 is less than 1 µM.

**Q.** With `COc1ncccc1COc1ccc2oc(C)c(C(=O)NC3(CO)CCC3)c2c1` [compound 417, N-(1-(hydroxymethyl)cyclobutyl)-5-((2-methoxypyridin-3-yl)methoxy)-2-methylbenzofuran-3-carboxamide] as the compound, how does the IC50 read?
**A.** Its IC50 is less than 1 µM.

Same assay, conditions: PS (50 μM) stimulated, cpds. 500-599

**Q.** How did the IC50 turn out when `COc1ncccc1COc1ccc2oc(C)c(C(=O)NC3(C(N)=O)COC3)c2c1` [compound 586, N-(3-carbamoyloxetan-3-yl)-5-((2-methoxypyridin-3-yl)methoxy)-2-methylbenzofuran-3-carboxamide] was run?
**A.** The IC50 was less than 1 µM.

**Q.** For `Cc1ncsc1COc1ccc2oc(C)c(C(=O)N(C)C3(CO)COC3)c2c1` [compound 529, N-(3-(hydroxymethyl)oxetan-3-yl)-N.2-dimethyl-5-((4-methylthiazol-5-yl)methoxy)benzofuran-3-carboxamide], which IC50 is on record?
**A.** Its IC50 is less than 1 µM.

**Q.** Which IC50 does the source give for `Cc1ncc(COc2ccc3oc(C)c(C(=O)NC4(CO)COC4)c3c2)s1` [compound 525, N-(3-(hydroxymethyl)oxetan-3-yl)-2-methyl-5-((2-methylthiazol-5-yl)methoxy)benzofuran-3-carboxamide] here?
**A.** Its IC50 is less than 1 µM.

**Q.** For `Cc1ncsc1COc1ccc2oc(C)c(C(=O)NCCC(F)F)c2c1` [compound 574, N-(3,3-difluoropropyl)-2-methyl-5-((4-methylthiazol-5-yl)methoxy)benzofuran-3-carboxamide], which IC50 is on record?
**A.** The IC50 was less than 1 µM.

**Q.** With `Cc1oc2ccc(OCc3cccnc3C(F)(F)F)cc2c1C(=O)NC1CCNCC1(F)F` (single isomer, unassigned) [cpd 539-En 1] as the compound, how does the IC50 read?
**A.** Its IC50 is 1 to 20 µM.

**Q.** `Cc1ncsc1COc1ccc2oc(C)c(C(=O)NC3(C(N)=O)COC3)c2c1F` [compound 583, N-(3-carbamoyloxetan-3-yl)-4-fluoro-2-methyl-5-((4-methylthiazol-5-yl)methoxy)benzofuran-3-carboxamide] was tested. Which IC50 did it give?
**A.** Its IC50 is less than 1 µM.

Same assay, conditions: PS (50 μM) stimulated, cpds. 667-751

**Q.** For `NC(=O)[C@H](CO)NC(=O)c1c(C(F)F)oc2ccc(OCc3ccccn3)cc12` [compound 744], which IC50 is on record?
**A.** The IC50 was less than 1 µM.

**Q.** With `Cc1oc2ccc(OCc3cnn(C)c3)cc2c1C(=O)N[C@@H](CO)C(N)=O` [compound 698, (S)-N-(1-Amino-3-hydroxy-1-oxopropan-2-yl)-2-methyl-5-((1-methyl-1H-pyrazol-4-yl)methoxy)benzofuran-3-carboxamide] as the compound, how does the IC50 read?
**A.** The IC50 was less than 1 µM.

**Q.** `Cc1oc2ccc(OCc3ccnn3CC(F)(F)F)cc2c1C(=O)N[C@@H](CO)C(N)=O` [compound 688, (S)-N-(1-Amino-3-hydroxy-1-oxopropan-2-yl)-2-methyl-5-((1-(2,2,2-trifluoroethyl)-1H-pyrazol-5-yl)methoxy)benzofuran-3-carboxamide] was tested. Which IC50 did it give?
**A.** Its IC50 is less than 1 µM.

**Q.** How did the IC50 turn out when `Cc1ccc(COc2ccc3oc(C4CC4)c(C(=O)N[C@@H](CO)C(N)=O)c3c2)cn1` [compound 750, (S)-N-(1-Amino-3-hydroxy-1-oxopropan-2-yl)-2-cyclopropyl-5-((6-methylpyridin-3-yl)methoxy)benzofuran-3-carboxamide] was run?
**A.** Its IC50 is less than 1 µM.
